This note sets out measurements from patent US11420958B2, “Aryl and heteroaryl substituted indole compounds” (BRISTOL-MYERS SQUIBB COMPANY, priority 2017, dated 2022).

Where only a bound is given, the exact number is not on record here.

What all share (format): cell-based
The target in one assay is human TLR9 (Homo sapiens (Human), UniProt Q9NR96). The experiment in a line: TLR9 inhibition reporter assay (HEK-Blue, SEAP). The following applies: HEK-Blue cells overexpressing human TLR9, ODN2006 5 nM stimulation. Summed up: (§1)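 SEAP read-out via detection medium after 22 h at 37 °C, 5% CO2; percent inhibition relative to agonist-plus-DMSO and known-inhibitor wells. Agonists: TLR7 gardiquimod 7.5 μM, TLR8 R848 15.9 μM, TLR9 ODN2006 5 nM (final). Compound range 0.05 nM–50 μM, 30 min pre-treatment.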
In general terms: In a reporter assay the amount or activity of a reporter protein is the signal.

The target in the next assay is human TLR8 (Homo sapiens (Human), UniProt Q9NR97). The experiment in a line: TLR8 inhibition reporter assay (HEK-Blue, SEAP). Particulars: HEK-Blue cells overexpressing human TLR8, R848 15.9 μM stimulation. In a few lines: as §1
In the next assay the target is human TLR7 (Homo sapiens (Human), UniProt Q9NYK1). The experiment in a line: TLR7 inhibition reporter assay (HEK-Blue, SEAP). The following applies: HEK-Blue cells overexpressing human TLR7, gardiquimod 7.5 μM stimulation. Summed up:
as §1

Sequence of human TLR7 (Q9NYK1 27-1049): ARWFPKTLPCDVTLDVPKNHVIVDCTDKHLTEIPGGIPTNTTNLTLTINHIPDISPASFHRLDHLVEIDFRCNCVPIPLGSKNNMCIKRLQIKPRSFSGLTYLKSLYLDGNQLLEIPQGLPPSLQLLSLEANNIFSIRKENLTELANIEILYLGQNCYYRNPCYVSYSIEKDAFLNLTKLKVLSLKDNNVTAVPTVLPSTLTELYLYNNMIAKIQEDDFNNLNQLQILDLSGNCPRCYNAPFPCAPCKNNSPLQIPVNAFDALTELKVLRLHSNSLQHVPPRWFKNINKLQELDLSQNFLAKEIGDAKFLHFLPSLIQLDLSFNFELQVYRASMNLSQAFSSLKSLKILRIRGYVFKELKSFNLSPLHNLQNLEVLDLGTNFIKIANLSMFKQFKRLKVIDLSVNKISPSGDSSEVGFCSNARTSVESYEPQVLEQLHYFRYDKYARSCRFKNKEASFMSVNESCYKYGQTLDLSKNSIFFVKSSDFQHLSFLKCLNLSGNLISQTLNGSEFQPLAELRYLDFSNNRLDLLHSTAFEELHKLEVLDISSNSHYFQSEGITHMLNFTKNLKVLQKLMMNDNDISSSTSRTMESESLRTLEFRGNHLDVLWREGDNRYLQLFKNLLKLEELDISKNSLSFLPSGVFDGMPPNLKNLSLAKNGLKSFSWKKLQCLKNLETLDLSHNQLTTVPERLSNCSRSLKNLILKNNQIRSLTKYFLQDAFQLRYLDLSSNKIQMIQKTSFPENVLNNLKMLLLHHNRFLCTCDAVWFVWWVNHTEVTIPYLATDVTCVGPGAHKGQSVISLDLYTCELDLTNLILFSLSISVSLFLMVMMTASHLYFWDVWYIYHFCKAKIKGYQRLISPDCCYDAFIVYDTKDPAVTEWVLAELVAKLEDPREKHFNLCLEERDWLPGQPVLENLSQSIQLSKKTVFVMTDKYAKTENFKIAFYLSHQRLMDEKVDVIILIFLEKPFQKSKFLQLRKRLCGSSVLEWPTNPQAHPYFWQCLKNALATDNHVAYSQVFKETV
Sequence of human TLR8 (Q9NR97 27-1041): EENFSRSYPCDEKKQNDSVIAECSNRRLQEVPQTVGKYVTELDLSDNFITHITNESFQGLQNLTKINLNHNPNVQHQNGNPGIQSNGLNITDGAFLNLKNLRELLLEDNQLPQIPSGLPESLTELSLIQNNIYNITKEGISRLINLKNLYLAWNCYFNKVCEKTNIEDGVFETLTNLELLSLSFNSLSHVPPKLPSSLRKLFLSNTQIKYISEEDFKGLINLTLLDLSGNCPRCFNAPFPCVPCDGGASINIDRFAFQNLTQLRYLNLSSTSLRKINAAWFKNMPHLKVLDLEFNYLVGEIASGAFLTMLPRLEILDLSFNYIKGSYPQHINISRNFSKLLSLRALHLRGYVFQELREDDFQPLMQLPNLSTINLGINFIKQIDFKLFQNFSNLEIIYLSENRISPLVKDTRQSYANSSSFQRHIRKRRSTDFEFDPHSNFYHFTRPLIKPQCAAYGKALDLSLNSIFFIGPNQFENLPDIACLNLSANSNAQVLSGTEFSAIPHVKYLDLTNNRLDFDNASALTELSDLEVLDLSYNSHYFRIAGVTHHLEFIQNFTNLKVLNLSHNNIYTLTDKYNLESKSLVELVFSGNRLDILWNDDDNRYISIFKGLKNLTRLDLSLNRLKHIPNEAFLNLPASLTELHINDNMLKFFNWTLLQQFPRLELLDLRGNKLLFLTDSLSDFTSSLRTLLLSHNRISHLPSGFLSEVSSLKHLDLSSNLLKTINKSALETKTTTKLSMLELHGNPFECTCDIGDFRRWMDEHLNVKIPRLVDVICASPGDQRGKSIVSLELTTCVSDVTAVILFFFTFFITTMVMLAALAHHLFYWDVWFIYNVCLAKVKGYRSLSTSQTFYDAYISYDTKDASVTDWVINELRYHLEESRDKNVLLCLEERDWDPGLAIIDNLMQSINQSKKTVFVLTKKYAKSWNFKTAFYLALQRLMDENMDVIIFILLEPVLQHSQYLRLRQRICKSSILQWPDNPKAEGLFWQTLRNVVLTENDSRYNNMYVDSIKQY
Sequence of human TLR9 (Q9NR96 26-1032): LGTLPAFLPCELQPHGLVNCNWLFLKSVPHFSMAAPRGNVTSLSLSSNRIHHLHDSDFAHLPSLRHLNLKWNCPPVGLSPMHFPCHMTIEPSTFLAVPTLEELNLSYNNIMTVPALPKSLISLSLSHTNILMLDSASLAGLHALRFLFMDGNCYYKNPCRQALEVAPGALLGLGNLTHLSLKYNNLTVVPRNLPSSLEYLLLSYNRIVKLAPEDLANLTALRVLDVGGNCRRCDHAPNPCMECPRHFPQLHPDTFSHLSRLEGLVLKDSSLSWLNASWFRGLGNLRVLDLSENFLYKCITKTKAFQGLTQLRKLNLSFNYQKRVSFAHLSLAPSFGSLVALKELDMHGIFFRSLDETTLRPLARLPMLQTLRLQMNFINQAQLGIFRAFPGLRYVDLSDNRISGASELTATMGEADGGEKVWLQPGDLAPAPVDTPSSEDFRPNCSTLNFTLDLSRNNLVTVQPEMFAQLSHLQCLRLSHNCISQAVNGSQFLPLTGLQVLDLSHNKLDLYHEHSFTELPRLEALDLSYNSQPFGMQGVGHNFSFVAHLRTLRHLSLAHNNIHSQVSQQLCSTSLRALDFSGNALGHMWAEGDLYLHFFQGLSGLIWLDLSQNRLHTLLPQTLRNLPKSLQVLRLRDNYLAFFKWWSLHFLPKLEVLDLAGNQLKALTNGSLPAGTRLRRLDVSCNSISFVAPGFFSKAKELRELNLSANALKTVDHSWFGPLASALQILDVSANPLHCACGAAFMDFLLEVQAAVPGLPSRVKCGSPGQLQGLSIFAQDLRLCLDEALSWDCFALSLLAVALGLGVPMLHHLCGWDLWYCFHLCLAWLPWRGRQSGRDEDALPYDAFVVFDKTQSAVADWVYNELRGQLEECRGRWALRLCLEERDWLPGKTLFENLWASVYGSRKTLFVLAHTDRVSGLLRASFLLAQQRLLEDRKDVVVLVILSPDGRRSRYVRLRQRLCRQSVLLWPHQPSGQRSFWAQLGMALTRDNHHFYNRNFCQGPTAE

With `Cc1cc(-c2[nH]c3ccc(-c4ccc(C(N)=O)nc4)cc3c2C(C)C)cc(C)n1` [Example 317, 5-(2-(2,6-dimethylpyridin-4-yl)-3-isopropyl-1H-indol-5-yl)picolinamide], the half-inhibitory concentration (IC50) against human TLR9 is > 50000 nM; against human TLR8, 26 nM; against human TLR7, 7.7 nM.
In the same order, the values of `CNCCNc1ccc(-c2ccc3[nH]c(-c4ccc(OC)c(OC)c4)c(C(C)C)c3c2)cc1` [Example 404, N1-(4-(2-(3,4-dimethoxyphenyl)-3-isopropyl-1H-indol-5-yl)phenyl)-N2-methylethane-1,2-diamine] are 9680 nM, 38 nM and 246 nM.
Regarding `COc1ccc(-c2[nH]c3ccc(-c4ccc(C5=CC(C)(C)NC(C)(C)C5)cc4)cc3c2C(C)C)cc1OC` [Example 377, 2-(3,4-dimethoxyphenyl)-3-isopropyl-5-(4-(2,2,6,6-tetramethyl-1,2,3,6-tetrahydropyridin-4-yl)phenyl)-1H-indole], the IC50 is 4770 nM on human TLR9, 340 nM at human TLR8 and 900 nM against human TLR7.
As to `Cc1cc(-c2[nH]c3ccc(-c4nnc(CC(C)N)o4)cc3c2C(C)C)ccn1` (stereo not drawn) [Example 259, 1-(5-(3-isopropyl-2-(2-methylpyridin-4-yl)-1H-indol-5-yl)-1,3,4-oxadiazol-2-yl)propan-2-amine], the IC50 against human TLR9 was determined as 876 nM; at human TLR8, 5.5 nM; at human TLR7 it was 26 nM.
Consider `Cc1cc(-c2[nH]c3ccc(-c4nnc(C5CCN(CC(=O)N(C)C)CC5)o4)cc3c2C(C)C)ccn1` [Example 65, 2-(4-(5-(3-isopropyl-2-(2-methylpyridin-4-yl)-1H-indol-5-yl)-1,3,4-oxadiazol-2-yl)piperidin-1-yl)-N,N-dimethylacetamide], for which the figures for the IC50 on human TLR9, on human TLR8 and on human TLR7 were 2000 nM, 2.9 nM and 97 nM, respectively.
The like results for `CCc1c(-c2ccnc(C)c2)[nH]c2ccc(-c3noc([C@H]4CCNC4)n3)cc12` [Example 455, (S)-3-(3-ethyl-2-(2-methylpyridin-4-yl)-1H-indol-5-yl)-5-(pyrrolidin-3-yl)-1,2,4-oxadiazole] were, in that order, 15900 nM, 27 nM and 2220 nM.
As for `Cc1cc(-c2[nH]c3ccc(-c4nnc(CCN(C)C)o4)cc3c2C(C)C)ccn1` [Example 143, 2-(5-(3-isopropyl-2-(2-methylpyridin-4-yl)-1H-indol-5-yl)-1,3,4-oxadiazol-2-yl)-N,N-dimethylethan-1-amine], the IC50 worked out at 1680 nM against human TLR9, 0.8 nM at human TLR8 and 47 nM at human TLR7.
`CC(C)c1c(-c2ccnc3n[nH]cc23)[nH]c2ccc(-c3nc(C(=O)NC4CCN(C(C)C)CC4)co3)cc12` [Example 183, 2-(3-isopropyl-2-(2H-pyrazolo[3,4-b]pyridin-4-yl)-1H-indol-5-yl)-N-(1-isopropylpiperidin-4-yl)oxazole-4-carboxamide]: the IC50 on human TLR9 came out at 427 nM; on human TLR8, 5.8 nM; against human TLR7, 137 nM.
`CC(C)c1c(-c2ccnc3[nH]ncc23)[nH]c2ccc(-c3nnc(CNCC#N)o3)cc12` [Example 150, 2-(((5-(3-isopropyl-2-(1H-pyrazolo[3,4-b]pyridin-4-yl)-1H-indol-5-yl)-1,3,4-oxadiazol-2-yl)methyl)amino)acetonitrile]: the IC50 is > 50000 nM against human TLR9, 378 nM against human TLR8 and 2240 nM against human TLR7.
As for `CC(C)c1c(-c2ccnc3[nH]ncc23)[nH]c2ccc(-c3nnc(CC4CCCNC4)o3)cc12` (stereo not drawn) [Example 182, 2-(3-isopropyl-2-(1H-pyrazolo[3,4-b]pyridin-4-yl)-1H-indol-5-yl)-5-(piperidin-3-ylmethyl)-1,3,4-oxadiazole], the IC50 came to 595 nM against human TLR9, 44 nM against human TLR8 and 332 nM at human TLR7.
`COc1ccc(-c2[nH]c3ccc(-c4nnc(CN5CCNC(=O)C5)o4)cc3c2C(C)C)cc1OC` [Example 120, 4-((5-(2-(3,4-dimethoxyphenyl)-3-isopropyl-1H-indol-5-yl)-1,3,4-oxadiazol-2-yl)methyl)piperazin-2-one]: the values for the IC50 against human TLR9, against human TLR8 and against human TLR7 were > 50000 nM, 222 nM and 371 nM, respectively.
The like results for `Cc1cc(-c2[nH]c3ccc(-c4cc5c(s4)CN(C(C)C)CC5)cc3c2C(C)C)ccn1` [Example 228, 6-isopropyl-2-(3-isopropyl-2-(2-methylpyridin-4-yl)-1H-indol-5-yl)-4,5,6,7-tetrahydrothieno[2,3-c]pyridine] were, in that order, 652 nM, 0.9 nM and 50 nM.
On to `Cc1cc(-c2[nH]c3ccc(-c4nnc(C5CCN(C(=O)CN(C)C)CC5)o4)cc3c2C(C)C)ccn1` [Example 62, 2-(dimethylamino)-1-(4-(5-(3-isopropyl-2-(2-methylpyridin-4-yl)-1H-indol-5-yl)-1,3,4-oxadiazol-2-yl)piperidin-1-yl)ethan-1-one], for which the figures for the IC50 at human TLR9, against human TLR8 and against human TLR7 were 743 nM, 2.2 nM and 31 nM, respectively.
For `CCc1c(-c2ccc(OC)c(OC)c2)[nH]c2ccc(-c3noc([C@H]4C[C@H]5CC[C@@H](C4)N5)n3)cc12` [Example 452, 5-((1R,3r,5S)-8-azabicyclo[3.2.1]octan-3-yl)-3-(2-(3,4-dimethoxyphenyl)-3-ethyl-1H-indol-5-yl)-1,2,4-oxadiazole], the IC50 against human TLR9 stood at 1930 nM; against human TLR8, 52 nM; on human TLR7 it was 282 nM.
Regarding `Cc1cc(-c2[nH]c3ccc(-c4cc5c(s4)CNCC5)cc3c2C(C)C)ccn1` [Example 225, 2-(3-isopropyl-2-(2-methylpyridin-4-yl)-1H-indol-5-yl)-4,5,6,7-tetrahydrothieno[2,3-c]pyridine], the concentration for half-maximal inhibition (IC50) came to 623 nM on human TLR9, 1 nM against human TLR8 and 16 nM at human TLR7.
The like results for `CCc1c(-c2ccnc(C)c2)[nH]c2ccc(-c3noc(CCC4CCNCC4)n3)cc12` [Example 448, 3-(3-ethyl-2-(2-methylpyridin-4-yl)-1H-indol-5-yl)-5-(2-(piperidin-4-yl)ethyl)-1,2,4-oxadiazole] were, in that order, 1800 nM, 50 nM and 327 nM.
The like results for `COc1ccc(-c2[nH]c3ccc(-c4ccnc(N5CCN(C6CCC6)CC5)c4)cc3c2C(C)C)cc1OC` [Example 427, 5-(2-(4-cyclobutylpiperazin-1-yl)pyridin-4-yl)-2-(3,4-dimethoxyphenyl)-3-isopropyl-1H-indole] were, in that order, 2530 nM, 56 nM and 960 nM.
Turning to `Cc1cc(-c2[nH]c3ccc(-c4cc5c(s4)CN(C)CC5)cc3c2C(C)C)ccn1` [Example 251, 2-(3-isopropyl-2-(2-methylpyridin-4-yl)-1H-indol-5-yl)-6-methyl-4,5,6,7-tetrahydrothieno[2,3-c]pyridine], the figures for the IC50 against human TLR9, on human TLR8 and at human TLR7 were 484 nM, 1.4 nM and 35 nM, respectively.
In the same order, the values of `CC(C)c1c(-c2ccnc3[nH]ncc23)[nH]c2ccc(-c3noc([C@@H]4CCCNC4)n3)cc12` [Example 462, (R)-3-(3-isopropyl-2-(1H-pyrazolo[3,4-b]pyridin-4-yl)-1H-indol-5-yl)-5-(piperidin-3-yl)-1,2,4-oxadiazole] are 1900 nM, 4.1 nM and 156 nM.
In the case of `Cc1cc(-c2[nH]c3ccc(-c4ccnc(C5CCN(C(C)C)CC5)c4)cc3c2C(C)C)cc(C)n1` [Example 345, 2-(2,6-dimethylpyridin-4-yl)-3-isopropyl-5-(2-(1-isopropylpiperidin-4-yl)pyridin-4-yl)-1H-indole], the IC50 against human TLR9 turned out to be 183 nM; against human TLR8, 8.5 nM; against human TLR7, 13 nM.
In the same order, the values of `Cc1cc(-c2[nH]c3ccc(-c4ccnc(N5CCN(C(C)C)CC5)c4)cc3c2C(C)C)ccn1` [Example 299, 3-isopropyl-5-(2-(4-isopropylpiperazin-1-yl)pyridin-4-yl)-2-(2-methylpyridin-4-yl)-1H-indole] are 1480 nM, 11 nM and 119 nM.
For the compound `COc1ccc(-c2[nH]c3ccc(-c4nnc(CNCCNC(C)=O)o4)cc3c2C(C)C)cc1OC` [Example 108, N-(2-(((5-(2-(3,4-dimethoxyphenyl)-3-isopropyl-1H-indol-5-yl)-1,3,4-oxadiazol-2-yl)methyl)amino)ethyl)acetamide], the IC50 against human TLR9 is > 50000 nM; against human TLR8, 220 nM; on human TLR7, 1980 nM.
For the compound `Cc1cc(-c2[nH]c3ccc(-c4nnc(Cc5cccnc5)o4)cc3c2C(C)C)ccn1` [Example 74, 2-(3-isopropyl-2-(2-methylpyridin-4-yl)-1H-indol-5-yl)-5-(pyridin-3-ylmethyl)-1,3,4-oxadiazole], the IC50 against human TLR9 stood at 15800 nM; at human TLR8, 21 nM; on human TLR7, 132 nM.
For `CCc1c(-c2ccnc3[nH]ncc23)[nH]c2ccc(-c3ccc(N4CCN(C)CC4)cc3)cc12` [Example 384, 4-(3-ethyl-5-(4-(4-methylpiperazin-1-yl)phenyl)-1H-indol-2-yl)-1H-pyrazolo[3,4-b]pyridine], the values for the IC50 against human TLR9, against human TLR8 and against human TLR7 were 1950 nM, 12 nM and 145 nM, respectively.
In the same order, the values of `CC(C)c1c(-c2ccnc3[nH]ncc23)[nH]c2ccc(-c3nnc(C(=O)N4CC5CNCC5C4)o3)cc12` (stereo not drawn) [Example 85, (hexahydropyrrolo[3,4-c]pyrrol-2(1H)-yl)(5-(3-isopropyl-2-(1H-pyrazolo[3,4-b]pyridin-4-yl)-1H-indol-5-yl)-1,3,4-oxadiazol-2-yl)methanone] are 590 nM, 9.2 nM and 328 nM.

One may read the IC50 as the concentration that inhibits the measured activity by half.
